Source: patent US8598344B2, “CDKI pathway inhibitors and uses thereof” (Senex Biotechnology, priority 2009, dated 2013)
Like-named read-outs stand apart in the source and are kept apart here.

Legend:
[1] = molecular target: T1, FLT3 (D835Y) (Homo sapiens, UniProt P36888, D835Y); test: KinomeScan competition binding assay; conditions: 10 μM compound
T1 construct: purchased KinomeScan, a division of Ambit Biosciences
T1 sequence (P36888 27-993 D835Y): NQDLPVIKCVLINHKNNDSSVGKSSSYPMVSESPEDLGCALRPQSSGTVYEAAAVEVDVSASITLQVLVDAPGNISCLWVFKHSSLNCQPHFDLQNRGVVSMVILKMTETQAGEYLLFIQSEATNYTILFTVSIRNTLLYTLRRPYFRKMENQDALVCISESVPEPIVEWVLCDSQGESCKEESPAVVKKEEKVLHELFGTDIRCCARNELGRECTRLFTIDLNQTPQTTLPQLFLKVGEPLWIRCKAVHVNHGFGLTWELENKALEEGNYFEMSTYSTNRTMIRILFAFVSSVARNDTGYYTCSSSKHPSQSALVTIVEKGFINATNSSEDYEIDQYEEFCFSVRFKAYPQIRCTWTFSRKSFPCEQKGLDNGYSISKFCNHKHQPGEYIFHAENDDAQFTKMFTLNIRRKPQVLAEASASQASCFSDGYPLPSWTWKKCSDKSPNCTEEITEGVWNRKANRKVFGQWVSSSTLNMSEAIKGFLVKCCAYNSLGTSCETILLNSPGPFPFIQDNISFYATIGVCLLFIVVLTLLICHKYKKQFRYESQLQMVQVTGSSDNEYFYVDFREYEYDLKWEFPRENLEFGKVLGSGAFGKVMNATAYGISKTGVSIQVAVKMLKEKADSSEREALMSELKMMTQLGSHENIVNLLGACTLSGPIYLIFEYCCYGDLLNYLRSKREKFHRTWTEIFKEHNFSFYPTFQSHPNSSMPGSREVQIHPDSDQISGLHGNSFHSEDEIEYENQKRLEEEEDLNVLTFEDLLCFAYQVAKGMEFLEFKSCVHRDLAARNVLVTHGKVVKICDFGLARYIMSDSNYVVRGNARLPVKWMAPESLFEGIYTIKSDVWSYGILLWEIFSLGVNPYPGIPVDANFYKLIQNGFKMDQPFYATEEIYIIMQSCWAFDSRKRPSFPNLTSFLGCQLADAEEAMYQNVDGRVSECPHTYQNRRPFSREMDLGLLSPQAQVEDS
Method in brief: (§1)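 qPCR read-out of DNA tag; DNA-tagged kinase + immobilized ATP-site ligand + test compound. Competition binding expressed as % of control (POC) or Kd.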

[2] = molecular target: T2, EGFR (G719C) (Homo sapiens, UniProt P00533, G719C); test: KinomeScan competition binding assay; conditions: 10 μM compound
T2 construct: purchased KinomeScan, a division of Ambit Biosciences
Method in brief: as §1

[3] = molecular target: T3, PIK3CA (I800L) (Homo sapiens, UniProt P42336, I800L); test: KinomeScan competition binding assay; conditions: 10 μM compound
T3 construct: purchased KinomeScan, a division of Ambit Biosciences
T3 sequence (P42336 whole entry I800L): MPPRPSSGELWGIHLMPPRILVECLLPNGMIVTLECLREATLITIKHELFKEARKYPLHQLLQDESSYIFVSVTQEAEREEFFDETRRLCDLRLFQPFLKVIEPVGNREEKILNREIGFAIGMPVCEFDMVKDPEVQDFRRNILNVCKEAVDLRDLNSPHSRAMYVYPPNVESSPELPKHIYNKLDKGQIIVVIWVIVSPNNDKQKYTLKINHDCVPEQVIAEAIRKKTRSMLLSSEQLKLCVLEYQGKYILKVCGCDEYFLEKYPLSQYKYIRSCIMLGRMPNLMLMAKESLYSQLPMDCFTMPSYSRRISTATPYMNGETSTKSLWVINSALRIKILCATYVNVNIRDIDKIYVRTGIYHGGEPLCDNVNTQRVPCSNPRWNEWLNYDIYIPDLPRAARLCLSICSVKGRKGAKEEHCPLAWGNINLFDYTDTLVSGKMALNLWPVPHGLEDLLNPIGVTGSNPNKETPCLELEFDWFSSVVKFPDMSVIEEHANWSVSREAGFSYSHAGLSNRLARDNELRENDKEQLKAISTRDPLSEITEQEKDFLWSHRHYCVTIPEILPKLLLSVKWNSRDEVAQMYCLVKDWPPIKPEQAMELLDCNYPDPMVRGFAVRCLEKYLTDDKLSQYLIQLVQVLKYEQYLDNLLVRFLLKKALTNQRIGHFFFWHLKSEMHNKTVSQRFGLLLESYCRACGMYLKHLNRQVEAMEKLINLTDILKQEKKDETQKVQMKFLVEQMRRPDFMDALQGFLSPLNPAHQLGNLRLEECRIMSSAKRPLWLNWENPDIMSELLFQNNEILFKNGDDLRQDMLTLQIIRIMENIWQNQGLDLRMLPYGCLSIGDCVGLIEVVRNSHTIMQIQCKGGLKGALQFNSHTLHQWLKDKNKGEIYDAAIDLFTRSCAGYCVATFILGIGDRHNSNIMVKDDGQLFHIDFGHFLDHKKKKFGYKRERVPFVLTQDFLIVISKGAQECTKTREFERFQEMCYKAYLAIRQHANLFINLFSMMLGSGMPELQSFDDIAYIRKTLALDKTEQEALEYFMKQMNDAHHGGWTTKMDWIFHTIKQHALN
Method in brief: as §1

[4] = tested on: induction of transcription by p21 (CDKI pathway, CMV promoter-GFP) in HT1080 fibrosarcoma cells; test: Cellular assay for CDKI pathway inhibition: CMV-GFP induction by IPTG-inducible p21 in HT1080 reporter cells; assay type: cell-based, human
Method: Briefly, the reporter cell line described in the above-referenced application, which carries IPTG (isopropyl-β-thio-galactoside)-inducible p21 gene together with a p21-inducible promoter driving the expression of Green Fluorescent Protein (GFP) was plated in 96-well plates, at 2000 cells per well for the no-IPTG arm of the assay and at 5000 cells per well for the IPTG arm of the assay. To induce the maximal levels of p21, IPTG was added to 50 μM concentration. Serial 2-fold dilutions of the tested compounds were added in quadruplicates to wells with and without IPTG, ˜10 min after IPTG addition.
This assay is based on the induction of green fluorescent protein (GFP) expression from the cytomegalovirus (CMV) promoter in human HT1080 fibrosarcoma cells that express CDKI p21 from an isopropyl-(3-thio-galactoside (IPTG)-inducible promoter. The compound activity as a CDKI pathway inhibitor is measured by its ability to prevent the stimulation of the CMV promoter upon the addition of p21-inducing IPTG. CMV promoter activity is measured by the ratio of GFP fluorescence to the relative cell number, as determined by staining cellular DNA with Hoechst 33342. This assay was conducted in two modes. […]

[5] = molecular target: T4, JNK1 (Homo sapiens, UniProt P45983); test: KinomeScan competition binding assay; conditions: 10 μM compound
T4 construct: purchased KinomeScan, a division of Ambit Biosciences
T4 sequence (P45983 whole entry): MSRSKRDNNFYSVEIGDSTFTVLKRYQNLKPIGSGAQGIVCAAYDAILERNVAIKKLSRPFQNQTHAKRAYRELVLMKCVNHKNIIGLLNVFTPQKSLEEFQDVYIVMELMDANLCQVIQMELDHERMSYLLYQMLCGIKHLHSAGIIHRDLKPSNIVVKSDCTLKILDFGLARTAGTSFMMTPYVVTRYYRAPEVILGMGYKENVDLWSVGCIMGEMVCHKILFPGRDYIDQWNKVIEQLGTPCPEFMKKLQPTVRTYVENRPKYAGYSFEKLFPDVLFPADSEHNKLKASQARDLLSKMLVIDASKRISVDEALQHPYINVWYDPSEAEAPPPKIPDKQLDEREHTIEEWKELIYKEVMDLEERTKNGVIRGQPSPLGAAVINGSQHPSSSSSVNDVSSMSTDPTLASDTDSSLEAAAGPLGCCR
Method: The KINOMEscan assay has been described in detail in Fabian et al., Nat. Biotechnol. 23: 329 (2005) and Karaman et al., Nat. Biotechnol. 26: 127 (2008).
The KinomeScan assay is based on a competition binding assay that quantitatively measures the ability of a compound to compete with an immobilized, ATP site directed ligand. The assay is performed by combining three components: DNA-tagged kinase; immobilized ligand; and a test compound. The ability of the test compound to compete with the immobilized ligand is measured via quantitative PCR of the DNA tag.

[6] = tested on: KB-3-1 carcinoma cells
[7] = tested on: HUVECs; test: HUVEC proliferation, 3-day MTT assay; assay type: cell-based, human
[8] = tested on: HIV-1; conditions: read-out: EC50, decrease in fraction of HIV-infected (p24-positive) cells; day 5
Method: HIV replication was assayed in a cell-to-cell model of HIV-1 transmission using chronically infected H9IIIB as donor cells cocultivated with uninfected CEM-ss leukemia cell line as recipient cells. 1 ml of RPMI1640 medium (+10% Fetal Bovine Serum+Penicillin/Streptomycin+glutamine) containing 10^4 H9IIIB cells was mixed with 1 ml of the same medium containing 10^6 CEM-ss cells. […] The suspended cells were placed into a 25 cm^2 flask and incubated at 37° C., 5% CO2. On day 3, the cells were counted with a light microscope and an hemocytometer after trypan blue staining, which was used to determine the fraction of viable (trypan blue negative) cells. On day 5, the fraction of HIV-infected cells was determined using the K57-FITC conjugated monoclonal antibody to the HIV p24 antigen. For this measurement, the cells in each flask were mixed, 1 ml of cell culture was removed from each flask and placed into round bottom centrifuge tubes. The cells were separated from the medium by centrifugation at 1500 RPM for 5 minutes, the supernatants were aspirated and discarded and the cell pellets suspended in a fixative. […] The final pellets were suspended in 0.5 ml of PBS and the percentage of HIV p24-positive cells was determined by FACS analysis.

[9] = Table 2, calculated assuming maximal effect = zero GFP/Hoechst, no unit in table, μM from FIG. 8 legend, no activity at 40 μM given as >100, read-out: IC50 in the cellular assay
[10] = Table 1, IC50 calculated on the basis of the maximal inhibition produced by the highest doses, IPTG mode (50 μM or 2 μM) not stated, read-out: Cell-based assay (IC50)

Structure (SMILES)	POC ligand binding, FLT3 (D835Y) [1]	POC ligand binding, EGFR (G719C) [2]	POC ligand binding, PIK3CA (I800L) [3]	IC50 [4, 9]	IC50 [4, 10]	POC binding, JNK1 [5]	IC50 KB-3-1 relative to IC50 for HUVEC cells [6]	IC50 ([6]; read-out: IC50, KB-3-1 proliferation, 3-day MTT)	effect on HUVEC cell number relative to untreated control ([7]; 0.625 or 1.25 μM)	IC50 ([7]; 3-day MTT)	EC50 [8]	IC50 ([4]; read-out: IC50, p21 induced by 8 μM IPTG, 8 μM IPTG, 72 hours)	POC ligand binding, FLT3 (D835Y) ([1]; 10 µM)	POC ligand binding, EGFR (G719C) ([2]; 10 µM)	POC ligand binding, PIK3CA (I800L) ([3]; 10 µM)
COc1ccc2ncnc(NCCc3ccccc3)c2c1 [compound 44]	55 POC	0.85 POC	86 POC	11 µM											
N#Cc1ccc2ncnc(NCc3ccc(Cl)cc3)c2c1 [compound 20]	69 POC	34 POC	73 POC	0.6 µM	0.199 µM										
N#Cc1ccc2ncnc(NCCc3ccccc3)c2c1 [compound 1]	19 POC	13 POC	17 POC	1.3 µM	0.641 µM	45 POC	4.3 fold	44.2 µM	little or no effect	10.4 µM	0.58 µM	0.57 µM			
CCCNc1ncnc2ccc(N3CCOCC3)cc12 [compound 46]	19 POC	61 POC	83 POC	> 100 µM											
N#Cc1ccc2ncnc(NCc3ccc4ccccc4c3)c2c1 [compound 43]				0.95 µM	0.22 µM								76 POC	53 POC	87 POC
CC(C)CNc1ncnc2ccc(C(F)(F)F)cc12 [compound 45]	4.7 POC	59 POC	83 POC	12.8 µM											
N#Cc1ccc2ncnc(NCc3ccc4ccccc4c3)c2c1 [compound 14]				1.2 µM	2.54 µM								32 POC	92 POC	62 POC
N#Cc1ccc2ncnc(NCCc3ccc4ccccc4c3)c2c1 [compound 26]	55 POC	68 POC	81 POC	1.15 µM	0.769 µM										
